Measurements from patent US7271239B2, “D-isomers of antimicrobial peptide” (The Research Foundation of State University of New York, priority 2004, dated 2007).

How the values were obtained:
[1] = test system: C. albicans strain DIS; format: in vivo, mice ICR strain
Method: A previously described protocol was adopted (14). Mice were immunosuppressed with two subcutaneous injections of prednisolone at a dose of 100 mg/kg body weight 1 day prior to and 3 days after the infection with C. albicans. Tetracycline hydrochloride in drinking water at a concentration of 0.83 mg/ml was given to mice beginning 1 day before infection. Mice were anesthetized by intramuscular injection with 60 μl of 2 mg/ml chlorpromazine chloride, using a dose of 10 mg/kg body weight of mice. While under anesthesia, a small cotton ball soaked in 0.1 ml aliquot of C. albicans cell suspension (2.5×10^6 cells) was used to swab the entire oral cavity of the anesthetized mice.
Visual evaluation was done by carefully extending the tongue of randomly picked mice using blunt-end forceps, while the mice were under isoflurane sedation. Presence of thick, white curd-like patches indicated candidal infection. At day 3 post-infection, all animals were examined for evidence oral candidal infection by microbiological evaluation. The entire oral cavity of anesthetized mice was swabbed using a sterile calcium alginate disposable swab (Fisher Scientific), dampened with sterile PBS. Cells were then released from the swab into 1 ml PBS. Serial 10-fold dilutions were plated on SDA plates supplemented with streptomycin (30 μg/ml). Plates were incubated for 24 h at 37° C. and yeast cell count expressed as log10 of cfu/ml.
Tongues from sacrificed animals were used for histological studies. They were fixed in 10% formalin and embedded in paraffin. Serial five-μm sections were cut from the paraffin block and stained with periodic acid-Schiff (PAS) reagent for detection of C. albicans.
Mice were randomly divided into various treatment groups with 8 mice per group. Antifungal agents were employed on an equimolar basis, and included amphotericin B (1.75%), clotrimazole (0.66%), MUC7 12-mer (RKSYKCLHKRCR—SEQ ID NO:1) (L; 3%), MUC7 12-mer (D; 3%), MUC7 12-mer (D; 3%) containing Na2EDTA (1 mM), MUC7 12-mer (L; 3%) containing protease inhibitor cocktail (PIC) (1%), and Hsn5 12-mer (AKRHHGYKRKFH—SEQ ID NO:2) (3%). They were all emulsified in Pluronic F127, (20% lipoil), a polymer of polyoxyethylene and polyoxypropylene (non-ionic surfactant). Animals were anesthetized using isoflurane; while sedated, about 30 to 40 μl of the antifungal emulsion was applied on the tongue and spread throughout oral cavity. The treated mice were under sedation for additional 5 min under isoflurane. Animals were not given access to food and water for 1 h following the application.
Fungal burden was re-evaluated quantitatively after 3 and 6 days of treatment, using the same technique as the one used for initial evaluation. Randomly picked mice from each group was subjected to histopathological evaluation, after 6 days of treatment. Blood from randomly sacrificed mice from each treatment group was analyzed for any changes in the serum liver (AST, ALT, ALP etc.) and kidney enzymes (BUN, glucose, creatinine etc) levels.
Statistical analysis was performed using a significance level set at 0.05 (α) and a significant group size (n=8). Initial infection and antifungal treatment efficacy were determined using analysis of variance (ANOVA), expressed as log10 cfu, and Scheffe's multiple comparison test was used to determine the differences between various treatment groups.

[2] = test system: C. albicans DIS; assay: Killing assay in whole human saliva; details: saliva, no peptide
Method: FIG. 1. Candidacidal activity of MUC7 12-mer-L, MUC7 12-mer-D, Hsn5 12-mer, and Magainin-II in whole human saliva (WHS). Each peptide at final concentration of 25, 50, and 100 μM was incubated with C. albicans (DIS isolate at 1×10^5 cells/ml) and 20 μl of clarified or unclarified saliva (SL; hatched bars), saliva containing Protease inhibitor cocktail (PIC) (SL+PIC; filled bars), or saliva containing ethylenediamine tetraacetic acid (EDTA) (SL+EDTA; clear bars) at 37° C. for 1.5 h. At the end of incubation, the samples were diluted 20-fold and aliquots plated on SDA. The colony forming units (CFU) were counted after 24 h of incubation. The loss of C. albicans viability was determined by the equation (1−CFU of the test group/CFU of the control group)×100%. The data represent three individual trials, and in each trial the sample was duplicated; the error bars represent standard deviation.
FIG. 4. […] Stimulated whole saliva was collected from 5 healthy subjects. Peptides (50 μM) were incubated with C. albicans cells (1×10^5) in the each individual saliva containing PIC (SL+PIC) at 37° C. for 1.5 hr and the loss of the cell viability was determined. Values represent the mean±S.D. (n=5).
Killing assays in saliva. Unclarified saliva (unstimulated whole saliva) was collected from five healthy individuals during the fasting. Clarified saliva was obtained by passing the unclarified saliva through the 0.2 μm pore size sterile syringe filter (VWR scientific products, West Chester, Pa.). Candidacidal activity assays were performed as described previously (4), except the phosphate buffer was substituted with saliva. […] Saliva without peptides was a blank control. After incubation at 37° C. for 1.5 h, the reactions were diluted 20-fold in PB and aliquots (50 μl, ˜120 cells) of each sample were plated on SDA. The plates were incubated at 37° C. for 1 day aerobically and the number of colony-forming units (CFUs) was counted. Percentage of killing was calculated as (1−amount of viable cells in the test group)/(amount of viable cells in the control group)×100%.

[3] = Experimental study I, topical oral application

Compound	Log10 cfu/ml (Mean + S.D.), Initial infection ([1]; Experimental study I, day 3 post-infection, before treatment (baseline))	Log10 cfu/ml (Mean + S.D.), 3-days treatment [1, 3]	Log10 cfu/ml (Mean + S.D.), 6-days treatment [1, 3]	histopathological finding in tongue sections (C. albicans, PAS staining) ([1]; end of treatment)	effect of additive alone on C. albicans cell viability [2]
Clc1ccccc1C(c1ccccc1)(c1ccccc1)n1ccnc1 [Clotrimazole, 1-[o-chloro-a,a-diphenylbenzyl]-imidazole]	4.50 ± 0.20 Log10 cfu/ml	1.58 ± 1.36 Log10 cfu/ml	0.53 ± 0.99 Log10 cfu/ml	healthy tissue and absence of visible microorganisms	
O=C(O)CN(CCN(CC(=O)O)CC(=O)O)CC(=O)O [EDTA, ethylenediamine tetraacetic acid]					very little or no effect
